Measured values: ChEMBL document CHEMBL5523669, “Sialyl LewisX glycomimetics bearing an extended anionic chain targeting E- and P- selectin binding sites” (Bioorg Med Chem, 2024)
The source made the active and inactive calls. The rule behind the calls is not given here.

What was measured:
P-selectin = target: T1, P-selectin (Homo sapiens, UniProt P16109); test: Antagonist activity at recombinant human P-selectin assessed as inhibition of P-selection binding to homodimer human PSGL-1-Fc interaction measured after 30 mins by surface plasmon resonance (SPR) spectroscopy
T1 sequence (P16109 whole entry): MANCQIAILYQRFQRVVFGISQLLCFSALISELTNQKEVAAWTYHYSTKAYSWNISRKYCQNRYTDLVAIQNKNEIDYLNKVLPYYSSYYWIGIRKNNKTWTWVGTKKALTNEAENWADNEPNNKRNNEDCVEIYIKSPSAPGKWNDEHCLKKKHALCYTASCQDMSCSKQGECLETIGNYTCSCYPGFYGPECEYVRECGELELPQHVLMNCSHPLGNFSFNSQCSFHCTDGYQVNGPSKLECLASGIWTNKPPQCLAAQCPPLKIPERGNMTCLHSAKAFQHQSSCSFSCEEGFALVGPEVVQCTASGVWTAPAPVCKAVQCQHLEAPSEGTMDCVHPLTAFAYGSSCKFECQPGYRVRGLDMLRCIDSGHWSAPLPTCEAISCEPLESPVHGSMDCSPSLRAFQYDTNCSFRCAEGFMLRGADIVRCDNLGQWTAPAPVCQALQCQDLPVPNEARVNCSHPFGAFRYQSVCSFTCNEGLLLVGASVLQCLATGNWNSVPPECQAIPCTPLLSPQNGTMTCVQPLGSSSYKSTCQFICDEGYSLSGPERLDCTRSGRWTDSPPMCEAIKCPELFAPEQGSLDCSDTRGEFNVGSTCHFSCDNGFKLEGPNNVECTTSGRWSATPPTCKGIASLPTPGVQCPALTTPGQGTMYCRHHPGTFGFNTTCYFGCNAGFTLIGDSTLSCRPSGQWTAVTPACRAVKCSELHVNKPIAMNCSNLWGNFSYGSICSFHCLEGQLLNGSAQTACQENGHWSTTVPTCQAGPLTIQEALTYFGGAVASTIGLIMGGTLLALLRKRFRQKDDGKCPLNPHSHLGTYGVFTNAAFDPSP

[1] = target: T2, E-selectin (Homo sapiens) (UniProt P16581); test: Reduction in human HL-60 cell adhesion in E-Selectin Fc coated plates at 0.1 to 500 uM measured after 1 hr incubation by Cell-selectin adhesion assay; format: cell-based; settings: filed as antagonist, dose 0.1-500 µM
T2 sequence (whole entry): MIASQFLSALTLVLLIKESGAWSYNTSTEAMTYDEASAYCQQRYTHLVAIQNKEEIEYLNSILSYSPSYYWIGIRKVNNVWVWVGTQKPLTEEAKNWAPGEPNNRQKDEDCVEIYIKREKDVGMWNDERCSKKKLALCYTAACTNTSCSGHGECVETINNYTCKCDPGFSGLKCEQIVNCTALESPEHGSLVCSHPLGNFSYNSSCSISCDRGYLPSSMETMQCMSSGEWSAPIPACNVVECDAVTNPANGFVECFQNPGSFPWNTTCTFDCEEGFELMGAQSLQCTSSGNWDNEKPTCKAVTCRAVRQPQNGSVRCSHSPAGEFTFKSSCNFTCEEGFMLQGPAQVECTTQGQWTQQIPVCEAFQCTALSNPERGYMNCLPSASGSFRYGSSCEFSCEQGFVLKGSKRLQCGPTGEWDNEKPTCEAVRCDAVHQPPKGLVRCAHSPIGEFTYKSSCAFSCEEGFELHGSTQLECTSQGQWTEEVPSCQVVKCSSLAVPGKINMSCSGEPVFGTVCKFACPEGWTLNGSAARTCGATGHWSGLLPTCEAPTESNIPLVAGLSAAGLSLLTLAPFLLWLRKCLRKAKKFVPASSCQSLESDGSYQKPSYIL

HL-60 = test: Reduction in human HL-60 cell adhesion in E-Selectin Fc coated plates measured after 1 hr incubation by Cell-selectin adhesion assay; format: cell-based; settings: filed as antagonist, dose 0.1-500 µM

| SMILES | IC50 (P-selectin) | Activity [1] | Activity (HL-60) |
| --- | --- | --- | --- |
| CC(C)OC(=O)[C@H](O[C@@H]1O[C@@H](C)[C@@H](O)[C@@H](O)[C@@H]1O)[C@@H](O[C@@H]1O[C@H](CO)[C@H](O)[C@H](O[C@H](Cc2ccccc2)C(=O)O)[C@H]1OC(=O)c1ccccc1)C(=O)OC(C)C | 162 µM | – | – |
| CC(C)OC(=O)[C@H](O[C@@H]1O[C@H](CO)[C@H](OC(=O)c2ccccc2)[C@H](O[C@H](Cc2ccccc2)C(=O)O)[C@H]1OC(=O)c1ccccc1)[C@@H](O[C@@H]1O[C@@H](C)[C@@H](O)[C@@H](O)[C@@H]1O)C(=O)O[C@@H](C)CCCn1cc(CCCCC(=O)Nc2ccc(OP(=O)(O)O)cc2)nn1 | 290 µM | Active | – |
| CC(=O)N[C@H]1[C@H]([C@H](O)[C@H](O)CO)O[C@@](O[C@H]2[C@@H](O)[C@@H](CO)O[C@@H](O[C@@H]([C@H](O[C@@H]3O[C@@H](C)[C@@H](O)[C@@H](O)[C@@H]3O)[C@H](C=O)NC(C)=O)[C@H](O)CO)[C@@H]2O)(C(=O)O)C[C@@H]1O | – | Active | Dose-Dependent Effect |
